# Measurements taken from patent US9562085B2, “Antimicrobial peptide” (priority 2013, dated 2017).
# Non-standard residues stand in square brackets, D forms with d. Residues, ends and D or L forms follow the SMILES beside them. *: point of attachment. Myristoyl = CCCCCCCCCCCCCC(=O)*
# System: S. aureus JAR
# Type: cell-based
# Settings: JAR, 2 h
# Procedure: S. aureus JAR is described in Campoccia et al. (Int. J. Artif. Organs, 2008 September; 31(9):841-7).
# For the in vitro killing assay with P10 variants, S. aureus JAR ([…] CFU/ml) were incubated for 2 hours at 37° C. with various concentrations of the peptides in PBS or in PBS/human plasma (1/1, v/v). […] The LC99.9 is the average value of two independent experiments.
Molecule,LC99.9 (μM) (50% plasma) [µM],LC99.9 (μM) (PBS) [µM]
"CCCCCCCCCCCCCC(=O)N[C@@H](CC(C)C)C(=O)N[C@@H](C)C(=O)N[C@@H](CCCNC(=N)N)C(=O)N[C@@H](CCC(=O)O)C(=O)N[C@@H](Cc1ccc(O)cc1)C(=O)N[C@@H](CCCCN)C(=O)N[C@@H](CCCCN)C(=O)N[C@H](C(=O)N[C@H](C(=O)N[C@@H](CCC(=O)O)C(=O)N[C@@H](CCCCN)C(=O)N[C@@H](CC(C)C)C(=O)N[C@@H](CCCCN)C(=O)N[C@@H](CCCNC(=N)N)C(=O)N[C@@H](Cc1c[nH]c2ccccc12)C(=O)N[C@@H](CC(C)C)C(=O)N[C@@H](CCCNC(=N)N)C(=O)N[C@@H](CCC(N)=O)C(=O)N[C@H](C(=O)N[C@@H](CC(C)C)C(=O)N[C@@H](CCCNC(=N)N)C(=O)N[C@H](C(=O)N[C@@H](CC(C)C)C(=O)N[C@@H](CCCNC(=N)N)C(N)=O)[C@@H](C)O)C(C)C)C(C)C)[C@@H](C)CC [Peptide 1302-10, uLAREYKKIVEKLKRWLRQVLRTLRB] (Myristoyl-LAREYKKIVEKLKRWLRQVLRTLR-NH2)",102.4,2.0
"CC[C@@H](C)[C@@H](NC(=O)[C@@H](CCCCN)NC(=O)[C@@H](CCCCN)NC(=O)[C@@H](Cc1ccc(O)cc1)NC(=O)[C@@H](CCC(=O)O)NC(=O)[C@@H](CCCNC(=N)N)NC(=O)[C@@H](C)NC(=O)[C@@H](CC(C)C)NC(C)=O)C(=O)N[C@@H](C(=O)N[C@H](CCC(=O)O)C(=O)N[C@H](CCCCN)C(=O)N[C@H](CC(C)C)C(=O)N[C@H](CCCCN)C(=O)N[C@H](CCCNC(=N)N)C(=O)N[C@H](Cc1c[nH]c2ccccc12)C(=O)N[C@H](CC(C)C)C(=O)N[C@H](CCCNC(=N)N)C(=O)N[C@H](CCC(N)=O)C(=O)N[C@@H](C(=O)N[C@H](CC(C)C)C(=O)N[C@H](CCCNC(=N)N)C(=O)N[C@@H](C(=O)N[C@H](CC(C)C)C(=O)N[C@H](CCCNC(=N)N)C(N)=O)[C@H](C)O)C(C)C)C(C)C [Peptide 1313-07, JlareykkiveklkrwlrqvlrtlrB] (Ac-[dL][dA][dR][dE][dY][dK][dK][dI][dV][dE][dK][dL][dK][dR][dW][dL][dR][dQ][dV][dL][dR][dT][dL][dR]-NH2)",25.6,1.6
"Ac-AAREYKKIVEKLKRWLRQVLRTLR-NH2 [Peptide 1302-19, JAAREYKKIVEKLKRWLRQVLRTLRB]",76.8,1.6
"Ac-EYKKIVEKLKRWLRQVLR-NH2 [Peptide 1302-61, JEYKKIVEKLKRWLRQVLRB]",102.4,2.4
"Ac-IAREYKKIVEKLKRWLRQVLRTLR-NH2 [Peptide 1302-17, JIAREYKKIVEKLKRWLRQVLRTLRB]",102.4,1.6
"Ac-KKIVEKLKRWLRQ-NH2 [Peptide 1302-63, JKKIVEKLKRWLRQB]",102.4,>3.2
"Ac-LAHEYKKIVEKLKRWLRQVLRTLR-NH2 [Peptide 1302-24, JLAHEYKKIVEKLKRWLRQVLRTLRB]",102.4,1.6
"Ac-LAKEYKKIVEKLKRWLRQVLRTLR-NH2 [Peptide 1302-23, JLAKEYKKIVEKLKRWLRQVLRTLRB]",102.4,1.6
"Ac-LAREYHKIVEKLKRWLRQVLRTLR-NH2 [Peptide 1302-28, JLAREYHKIVEKLKRWLRQVLRTLRB]",102.4,1.2
"Ac-LAREYKHIVEKLKRWLRQVLRTLR-NH2 [Peptide 1302-30, JLAREYKHIVEKLKRWLRQVLRTLRB]",102.4,3.2
"Ac-LAREYKKIVEKAKRWLRQVLRTLR-NH2 [Peptide 1302-36, JLAREYKKIVEKAKRWLRQVLRTLRB]",76.8,3.2
"Ac-LAREYKKIVEKIKRWLRQVLRTLR-NH2 [Peptide 1302-33, JLAREYKKIVEKIKRWLRQVLRTLRB]",102.4,3.2
"Ac-LAREYKKIVEKLHRWLRQVLRTLR-NH2 [Peptide 1302-37, JLAREYKKIVEKLHRWLRQVLRTLRB]",102.4,3.2
"Ac-LAREYKKIVEKLKHWLRQVLRTLR-NH2 [Peptide 1302-39, JLAREYKKIVEKLKHWLRQVLRTLRB]",102.4,3.2
"Ac-LAREYKKIVEKLKKWLRQVLRTLR-NH2 [Peptide 1302-38, JLAREYKKIVEKLKKWLRQVLRTLRB]",102.4,2.4
"Ac-LAREYKKIVEKLKRFLRQVLRTLR-NH2 [Peptide 1302-40, JLAREYKKIVEKLKRFLRQVLRTLRB]",76.8,1.6
"Ac-LAREYKKIVEKLKRWLHQVLRTLR-NH2 [Peptide 1302-41, JLAREYKKIVEKLKRWLHQVLRTLRB]",102.4,1.6
"Ac-LAREYKKIVEKLKRWLRAVLRTLR-NH2 [Peptide 1302-43, JLAREYKKIVEKLKRWLRAVLRTLRB]",102.4,1.6
"Ac-LAREYKKIVEKLKRWLRNVLRTLR-NH2 [Peptide 1302-42, JLAREYKKIVEKLKRWLRNVLRTLRB]",76.8,1.6

# Same assay, conditions: statements referring to Tables 2-6
row,Molecule,"antimicrobial activity, in words"
1,"CC[C@@H](C)[C@@H](NC(=O)[C@@H](CCCCN)NC(=O)[C@@H](CCCCN)NC(=O)[C@@H](Cc1ccc(O)cc1)NC(=O)[C@@H](CCC(=O)O)NC(=O)[C@@H](CCCNC(=N)N)NC(=O)[C@@H](C)NC(=O)[C@@H](CC(C)C)NC(C)=O)C(=O)N[C@@H](C(=O)N[C@H](CCC(=O)O)C(=O)N[C@H](CCCCN)C(=O)N[C@H](CC(C)C)C(=O)N[C@H](CCCCN)C(=O)N[C@H](CCCNC(=N)N)C(=O)N[C@H](Cc1c[nH]c2ccccc12)C(=O)N[C@H](CC(C)C)C(=O)N[C@H](CCCNC(=N)N)C(=O)N[C@H](CCC(N)=O)C(=O)N[C@@H](C(=O)N[C@H](CC(C)C)C(=O)N[C@H](CCCNC(=N)N)C(=O)N[C@@H](C(=O)N[C@H](CC(C)C)C(=O)N[C@H](CCCNC(=N)N)C(N)=O)[C@H](C)O)C(C)C)C(C)C [Peptide 1313-07, JlareykkiveklkrwlrqvlrtlrB] (Ac-[dL][dA][dR][dE][dY][dK][dK][dI][dV][dE][dK][dL][dK][dR][dW][dL][dR][dQ][dV][dL][dR][dT][dL][dR]-NH2)",possesses antimicrobial activity
